Test results: patent US20140161342A1, “DENSITY-BASED METHOD OF COMPARING IMAGES AND DETECTION OF MORPHOLOGICAL CHANGES USING THE METHOD THEREOF” (CENTRE NATIONAL DE LA RECHERCHE SCIENTIFIQUE CNRS, priority 2011, published 2014)

Experiments:
Type in all cases: cell-based, Human
[1] = tested on: endoplasmic reticulum exit sites (ERES); assay: Density-based comparison of endoplasmic reticulum exit sites (ERES), Sec13 stain, micropatterned RPE-1 cells; conditions: nocodazole 10 μM, 15 cells of CG, 11 cells of TG
Method: (§1) Human RPE-1 cells kept in growth medium were trypsinized and seeded on micropattern-printed coverslips as described in EP 1664266. To depolymerize microtubules, nocodazole was added to a final concentration of 10 μM to TG. TG and CG were both subsequently incubated for 1 h at 4° C. and 1 h at 37° C. Cells were fixed with 4% (wt/vol) paraformaldehyde (PFA) and proceeded for indirect immunofluorescence staining with primary α-CD63 antibodies (Invitrogen) to visualize MVB, α-GM130 antibodies to visualize the Golgi apparatus and α-Sec13 antibodies to visualize ERES as well as fluorophore-coupled secondary antibodies. 3D image stacks of n cells of each condition (TG and CG) were acquired with 100× magnification and Z-series every 0.2 μm. Images were deconvolved and segmented in order to detect signals that are fifteen-fold larger than noise. The coordinates of the segmented structures from all cells were aligned using the micropattern geometry and the coordinate sample of the TG was compared with the coordinate sample of the CG using the above-described method for each intracellular compartment analyzed.
Parts A and B of FIG. 7 illustrate representative fluorescent images of one cell from CG (designated by “Crtl”) and one cell from TG (designated by “NZ” for nocodazole) stained for ERES. […]

[2] = tested on: multivesicular bodies (MVB); assay: Density-based comparison of multivesicular body (MVB) morphology, CD63 stain, micropatterned RPE-1 cells; conditions: nocodazole 10 μM, 1 h at 4° C. and 1 h at 37° C., 40 cells of CG, 40 cells of TG
Method: as §1, with “Images were deconvolved and segmented in order to detect signals that are fifteen-fold larger than noise.” left out
Parts A and B of FIG. 5 illustrate representative fluorescent images of one cell from CG (designated by “Crtl”) and one cell from TG (designated by “NZ” for nocodazole) stained for MVB. […] As shown in prior art, the steady-sate three-dimensional organization of MVB is constant in micropatterned cells as analyzed here. […]

Golgi apparatus = assay: Density-based comparison of Golgi apparatus morphology, GM130 stain, micropatterned RPE-1 cells; conditions: nocodazole 10 μM, 15 cells of CG, 20 cells of TG
Method: as §1
Parts A and B of FIG. 6 illustrate representative fluorescent images of one cell from CG (designated by “Crtl”) and one cell from TG (designated by “NZ” for nocodazole) stained for the Golgi apparatus. […]

[3] = tested on: multivesicular bodies (MVB); assay: Live cell analysis of MVB in unconstrained EGFP-CD63-expressing RPE-1 cells; conditions: nocodazole 20 μM, last six time frames after addition
Method: In this example, morphological changes in the steady-state organization of MVB were monitored in a time period between two instants t1 and t2 when using a drug treatment. Thus, the density-based method of the present invention is applied to life cell analysis. More precisely, MVB were analyzed in unconstrained cells before and after treatment with nocodazole, illustrating that the present invention is not limited to the comparison of constrained cells but can also apply to the comparative study of unconstrained cells.
EGFP-CD63-expressing stable cells (generated by transfection of the plasmid pEGFP-CD63, Ostrowski et al. NATURE CELL BIOLOGY, January 2010) into RPE-1 cells and selection with 500 μg/ml geneticin) were seeded on iwaki glass base dishes (Asahi Glass) for live cell observation. To depolymerize microtubules, nocodazole (NZ) was added to a final concentration of 20 μM. […] The first two groups contained images in the absence of the drug (CG1 and CG2) and the second two groups contained images in the presence of the drug (TG1 and TG2) recorded after the addition of the drug. […]
Groups CG1 and CG2 are non-treated control groups with 1080 and 1002 detected CD63-positive structures that were acquired before addition of the drug.
Groups TG1 and TG2 are treated test groups containing 1019 and 801 structures that were recorded after the addition of the drug. […]

microtubules = assay: Density-based comparison of microtubules (β-tubulin stain), micropatterned RPE-1 cells; design: dose or concentration left out as unconfirmed; conditions: nocodazole; 16 cells of CG, 16 cells of TG; tubulin structures
Method: Human RPE-1 cells kept in growth medium were trypsinized and seeded on micropattern-printed coverslips as described in EP 1664266. To depolymerize microtubules, nocodazole was added to a final concentration of 10 M to TG. TG and CG were both subsequently incubated for 1 h at 4° C. and 1 h at 37° C. Cells were fixed with 4% (wt/vol) paraformaldehyde (PFA) and proceeded for indirect immunofluorescence staining with primary β-tubulin antibodies (Sigma-Aldrich) to visualize microtubules and fluorophore-coupled secondary antibodies.
3D image stacks of n cells of each condition (TG and CG) were acquired with 100× magnification and Z-series every 0.2 m. Images were deconvolved and segmented in order to detect signals that are larger than noise. To represent continuous structures (microtubules and Rab8-marked membranes domains) by a cloud of coordinates, we “cut” them in several small structures by increasing the watershed during segmentation. The coordinates of the segmented structures from all cells were aligned using the micropattern geometry and the coordinate sample of the TG was compared with the coordinate sample of the CG using the above-described method for each intracellular compartment analyzed.
Each coordinate stands for one fluorescent fragment. […]

COC(=O)Nc1nc2ccc(C(=O)c3cccs3)cc2[nH]1 [nocodazole]
P2D-value, comparison TG/CG [1]: 0.3416*10^−3 | P3D-value, comparison TG/CG [1]: 0.1118*10^−6 | P2D-value, comparison TG/CG [2]: 1.589*10^−5 | P3D-value, comparison TG/CG [2]: 1.280*10^−11 | P2D-value, comparison TG/CG (Golgi apparatus): 0.9524*10^−2 | P3D-value, comparison TG/CG (Golgi apparatus): 1.8741*10^−2 | P2D-value, non-treated group CG1 vs treated group TG2 [3]: 4.00*10^−6 | P3D-value, non-treated group CG1 vs treated group TG2 [3]: 4.84*10^−6 | P2D-value, comparison TG/CG (microtubules): 6.5862*10^−41 | P3D-value, comparison TG/CG (microtubules): 2.7758*10^−228
